This is an account of results in patent publication US10738019B2, “Compound including basic dye and amino acid, hair dyeing dye, and hair dyeing composition” (HODOGAYA CHEMICAL CO., LTD., priority 2018, dated 2020).

SMILES strings stand for the structures.

The nature of this series: Water solubility, foaming property and hair feel during hair dyeing. As to conditions: for hair dyeing (dyeing gel, pH 6 aqueous solution). The format is physicochemical. As to the method: Subsequently, Human White hair 100% BM-W manufactured by Beaulax Co., Ltd. was used as hair to be dyed. Two parts by mass of the dyeing gel was taken with respect to 1 part by mass of the hair and applied to the hair uniformly using a comb, and the hair was dyed at 40° C. for 10 minutes and washed with water.

For `CC1=CC(=C(c2ccc(N)c(C)c2)c2ccc(N)c(C)c2)C=CC1=N` [Compound (A-3)], the water solubility entry is reported as “sufficient water solubility for hair dyeing”.
For `C[N+](C)(C)c1ccc2ccc(O)c(N=Nc3ccc(N)cc3)c2c1` [Compound (A-5)], the water solubility entry is recorded as “sufficient water solubility for hair dyeing”.
